According to BindingDB's records for doi:10.1038/nchembio.2208 (Novartis Pharma, 2016):

Legend:
[1] = biological target: T1, Kallikrein-7 [37-253,Y180R] (Homo sapiens, UniProt P49862, Y180R); experiment: Human KLK7 Fluorescence-Lifetime Assay; conditions: pH 5.6; 25 °C
T1 construct: 37-253
Method: The enzyme reaction was initiated by addition of the substrate Ac-[…]PT14)-Glu-NH2 (0.8 μM; Biosyntan, Berlin, Germany, product BS-#7599). Fluorescence-lifetime measurements were conducted on an Ultra Evolution fluorescence lifetime reader (TECAN, M nnedorf, Switzerland). The excitation light source was a semiconductor laser at 405 nm, producing picosecond light pulses with a selected repetition frequency of 10 MHz. The emission was collected through a 450 nm bandpass filter with 25 nm bandwidth. The measurement time per well was set to 1 s, yielding approximately 1,000 counts in the peak channel. The parameters used as assay readout were the mono-exponential lifetimes.

[2] = biological target: T2, Complement factor B [470-764] (UniProt P00751); experiment: Human FB Proteolysis Assay (ELISA C3a); conditions: pH 7.4; 4 °C
T2 construct: 470-764
Method: The enzyme reaction was started by addition of C3 diluted in the assay buffer to a final concentration of 1 μM.

[3] = biological target: T3, Complement factor D [24-253] (Homo sapiens, UniProt P00746); experiment: Complement FD Thioesterolysis Assay; conditions: pH 7.5; 25 °C
T3 construct: 24-253

[4] = biological target: T4, Complement factor D [24-253] (Mus musculus, UniProt P03953); experiment: Complement FD Thioesterolysis Assay; conditions: pH 7.5; 25 °C
T4 construct: 24-253
T4 sequence (P03953 whole entry): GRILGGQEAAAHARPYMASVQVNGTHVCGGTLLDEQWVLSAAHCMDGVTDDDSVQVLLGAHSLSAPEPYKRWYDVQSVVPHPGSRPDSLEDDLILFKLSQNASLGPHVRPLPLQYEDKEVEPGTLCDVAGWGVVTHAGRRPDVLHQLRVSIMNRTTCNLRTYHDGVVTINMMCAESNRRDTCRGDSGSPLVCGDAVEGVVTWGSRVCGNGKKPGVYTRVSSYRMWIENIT

T1 sequence (P49862 37-253 Y180R): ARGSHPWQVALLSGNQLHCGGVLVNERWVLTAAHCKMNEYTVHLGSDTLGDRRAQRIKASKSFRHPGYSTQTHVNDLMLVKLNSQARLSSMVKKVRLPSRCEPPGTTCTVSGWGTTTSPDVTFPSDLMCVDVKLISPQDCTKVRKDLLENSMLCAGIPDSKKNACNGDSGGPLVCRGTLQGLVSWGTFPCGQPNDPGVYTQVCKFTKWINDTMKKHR
T2 sequence (P00751 470-764): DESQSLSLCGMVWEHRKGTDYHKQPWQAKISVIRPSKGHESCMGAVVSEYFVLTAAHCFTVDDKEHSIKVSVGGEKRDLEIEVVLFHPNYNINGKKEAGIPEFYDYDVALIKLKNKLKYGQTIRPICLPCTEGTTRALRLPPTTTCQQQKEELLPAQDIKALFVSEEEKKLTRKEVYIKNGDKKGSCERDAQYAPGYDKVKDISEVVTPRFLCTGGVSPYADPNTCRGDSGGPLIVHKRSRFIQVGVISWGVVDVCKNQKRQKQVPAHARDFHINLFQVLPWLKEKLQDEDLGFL
T3 sequence (P00746 24-253): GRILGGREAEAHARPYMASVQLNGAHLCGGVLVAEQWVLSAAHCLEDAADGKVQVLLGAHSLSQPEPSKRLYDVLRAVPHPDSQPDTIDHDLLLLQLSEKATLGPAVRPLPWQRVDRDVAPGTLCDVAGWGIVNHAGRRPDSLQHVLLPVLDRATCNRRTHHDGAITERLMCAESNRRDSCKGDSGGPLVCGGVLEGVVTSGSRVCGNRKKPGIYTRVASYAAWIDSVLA

**Q.** NC(=O)c1nn(CC(=O)N2[C@@H]3C[C@@H]3C[C@H]2C(=O)Nc2cccc(Br)n2)c2ccccc12 [1-(2-((1R,3S,5R)-3-((6-Bromopyridin-2-yl)carbamoyl)-2-azabicyclo[3.1.0]hexan-2-yl)-2-oxoethyl)-1H-indazole-3-carboxamide (7)] was tested. Which IC50 [1] did it give?
**A.** The IC50 was greater than 100 µM.

**Q.** Which results are given for Cn1cc(NC(=O)N2CCC[C@H]2C(=O)NC(c2ccccc2)c2ccccc2)c2ccccc21 [(S)-N2-benzhydryl-N1-(1-methyl-1H-indol-3-yl)pyrrolidine-1,2-dicarboxamide (5)]?
**A.** IC50 [2]: > 100 µM; IC50 [1]: > 100 µM; IC50 [3]: 5.8 µM

**Q.** COc1ccc(CCNC(=O)[C@@H]2CCCN2C(=O)NCc2cccc3ccccc23)cc1 [(S)-N2-(4-methoxyphenethyl)-N1-(naphthalen-1-ylmethyl)pyrrolidine-1,2-dicarboxamide (1)] was tested. Which IC50 [1] did it give?
**A.** Its IC50 is 0.7 µM.

**Q.** What about the IC50 [3] of the same compound?
**A.** The IC50 was greater than 30 µM.

**Q.** Which results are given for COC(=O)c1ccccc1CNC(=O)N1CCC[C@H]1C(=O)Nc1cccc(OC(F)(F)F)c1 [Methyl (S)-2-((2-((3-(trifluoromethoxy)phenyl)carbamoyl)pyrrolidine-1-carboxamido)-methyl)benzoate (2)]?
**A.** IC50 [2]: > 100 µM; IC50 [1]: 8.7 µM

**Q.** For C[C@@H](NC(=O)[C@@H]1C[C@H]2C[C@H]2N1C(=O)Cn1nc(C(N)=O)c2ccncc21)c1cccc(Cl)c1F [1-(2-((1R,3S,5R)-3-(((R)-1-(3-Chloro-2-fluorophenyl)ethyl)carbamoyl)-2-azabicyclo[3.1.0]hexan-2-yl)-2-oxoethyl)-1H-pyrazolo[3,4-c]pyridine-3-carboxamide (6)], which IC50 [2] is on record?
**A.** Its IC50 is greater than 100 µM.

**Q.** What about the IC50 [1] of the same compound?
**A.** The IC50 was greater than 100 µM.

**Q.** What about the IC50 [4] of the same compound?
**A.** The IC50 was 0.86 µM.

**Q.** How did the IC50 [2] turn out when NC(=O)c1cc2cc(OCc3cccc(C(=O)O)c3)ccc2[nH]1 [3-(((2-Carbamoyl-1H-indol-5-yl)oxy)methyl)benzoic acid (4)] was run?
**A.** The IC50 was greater than 100 µM.
